Test results as given in patent US5861400A, “Pharmaceutical compounds” (Xenova Limited, priority 1994, dated 1999).
Counter-ions that a name gives are not always drawn.

How the values were obtained:
[1] = test system: AR 1.0 cells; experiment: Potentiation of Doxorubicin toxicity (potentiation index, AR 1.0 cells); format: cell-based, mouse; conditions: doxorubicin 0.5 nM-50 μM, four days; for Potentiation Index (at 5 μM): Conc Comp 5 μM; for Potentiation Index: Conc Comp 3 μM
Method: (§1) The EMT6 mouse mammary carcinoma cell line and the MDR resistant subline AR 1.0 were cultured in RPMI 1640 medium containing 10% foetal calf serum and 2mM glutamine at 37° C. in 5% CO2. Cells were passaged between 1 in 200 and 1 in 2000 in the case of the parental cell line and between 1 in 20 and 1 in 200 in the case of the MDR resistant subline, after trypsinisation (0.25% trypsin, 0.2 gl^-1, EDTA).
2. Potentiation of Doxorubicin toxicity
Compounds of formula A were examined for their ability to potentiate the toxicity of doxorubicin in AR 1.0 cells. In initial proliferation assays compounds were titrated against a fixed concentration of doxorubicin (0.5-1 μM) which alone is non-toxic to AR 1.0 cells. Incubations with doxorubicin were over a four day period before quantitation of proliferation using the calorimetric sulphorhodamine B assay (Skehan et al; J. Natl. Cancer Inst. 82 pp 1107-1112 (1990)).
Cells were cultured for four days with concentrations of doxorubicin over the range of 0.5 nM-50 μM in the presence of Verapramil at its maximum subtoxic level determined from previous experiments. Proliferation was quantified as described by Skehan et al, loc cit. The IC50 (concentration required to reduce proliferation to 50% of the untreated controls) for doxorubicin alone and with the Verapamil were derived and used to calculate the potentiation index (PI): […]

[2] = test system: AR 1.0 cells; experiment: Drug accumulation assay (tritiated daunorubicin, AR 1.0 cells); format: cell-based, mouse; conditions: for IC50: daunorubicin accumulation, 37° C., DNR 2 μM; for Emax: 100% = accumulation with 100 μM Verapamil, compounds 100 nM to 100 μM, read-out: MAX accumulation (% 100 μm VRP)
Method: as §1
1. Drug accumulation assay
AR 1.0 cells were seeded into 96 well opaque culture plates (Canberra Packard). The assay medium contained a mixture of tritiated Daunorubicin (DNR), a cytotoxic agent, and unlabelled DNR (0.25μ Ci/ml; 2 μM). Compounds of formula A were serially diluted in assay medium over a range of concentrations from 100 nM to 100 μM. The cells were incubated at 37° C. for 1 hr before washing and counting of cell associated radioactivity. Each assay included a titration of the known resistance modifying agent Verapamil as positive control. Results were expressed as % maximum accumulation where 100% accumulation is that observed in the presence of 100 μM Verapamil.

[3] = test system: AR 1.0 cells; experiment: Proliferation/toxicity assay, compound alone and with cytotoxic agent (sulphorhodamine B); format: cell-based, mouse
[4] = test system: MDR cells; conditions: in vitro and in vivo; Cancer Res., 41, 1967-1972 (1981); cited from earlier work
[5] = Kamei et al, J. Antibiotics vol XLIII No. 8, 1018-1020; cited from earlier work
[6] = Mus musculus, compound alone, read-out: COMPOUND TOXICITY (IC50 μM)
[7] = cytotoxic agent (doxorubicin) 0.50 μg/ml, 5760 min, read-out: TOXICITY WITH CYTOTOXIC AGENT (IC 50 μM)
[8] = compound alone, read-out: COMPOUND TOXICITY (IC50 μM)
[9] = cytotoxic agent (doxorubicin) 1.00 μg/ml, 5760 min, read-out: TOXICITY WITH CYTOTOXIC AGENT (IC 50 μM)

SMILES	IC50 ([2]; Mus musculus, 1 h)	Potentiation Index (at 5 μM) [1]	IC50 [3, 6]	IC50 [3, 7]	other results
O=c1[nH]/c(=C\c2ccncc2)c(=O)n(Cc2ccccc2)/c1=C\c1ccccc1 [Compound 1840, (3Z,6Z)-1-Benzyl-6-benzylidene-3-(4-pyridyl)methylene-2,5-hydrochloride]	–	–	–	1 µM	IC50 ([2]; 1 hr): 12 µM; IC50 [3, 8]: 5 µM
COc1ccc(/C=c2/c(=O)n(Cc3ccccc3)/c(=C\c3cn(C(=O)OC(C)(C)C)c4ccccc34)c(=O)n2C)cc1 [Compound 1874, (3Z,6Z)-4-benzyl-3-(1-tertbutoxycarbonyl-3-indolyl)methylene-6-(4-methoxybenzylidene)-1-methyl-2,5-piperazinedione]	10 µM	20	–	–	–
Cn1c(=O)/c(=C/c2cn(C(=O)OC(C)(C)C)c3ccccc23)n(C)c(=O)/c1=C/c1c(Cl)cccc1Cl [Compound 1873, (3Z,6Z)-6-(2,6-dichlorobenzylidene)-3-(1-tertbutoxycarbonyl-3-indolyl)methylene-1,4-dimethyl-2,5-piperazinedione]	5 µM	–	8 µM	–	Emax ([2]; Mus musculus, 1 hr): 56%
COc1ccc(CCN(C)CCCC(C#N)(c2ccc(OC)c(OC)c2)C(C)C)cc1OC (stereo not shown) [Verapamil]	–	–	–	–	sensitisation of MDR cells to vinca alkaloids [4]: shown to sensitise MDR cells to vinca alkaloids in vitro and in vivo
Cn1c(=O)/c(=C/c2cn(C(=O)OC(C)(C)C)c3ccccc23)n(C)c(=O)/c1=C/c1cccs1 [Compound 1834, (3Z,6Z)-1,4-Dimethyl-3-(1-tert-butoxycarbonyl-3-indolyl)methylene-6-(2-thenylidene)-2,5-piperazinedione]	5 µM	–	10 µM	0.8 µM	Potentiation Index [1]: 30
Cn1c(=O)/c(=C/c2cn(C(=O)OC(C)(C)C)c3ccccc23)n(C)c(=O)/c1=C/c1ccoc1 [Compound 1875, (3Z,6Z)-6-(3-furylmethylene)-6-(1-tertbutoxycarbonyl-3-indolyl)methylene-1,4-dimethyl-2,5-piperazinedione]	5 µM	–	10 µM	0.8 µM	–
O=c1[nH]/c(=C\c2ccccc2)c(=O)[nH]/c1=C\c1ccccc1 [B]	–	–	–	–	potentiation of the cytotoxicity of vincristine [5]: have utility as potentiators of the cytotoxicity of vincristine
Cn1c(=O)/c(=C/c2cn(C(=O)OC(C)(C)C)c3ccccc23)n(C)c(=O)/c1=C/c1ccccc1 [Compound 1800, (3Z,6Z)-3-Benzylidene-1,4-dimethyl-6-(1-tert-butoxycarbonyl-3-indolyl)methylene-2,5-piperazinedione]	7 µM	40	10 µM	–	IC50 [3, 9]: 0.8 µM

More lines, main results first:

IC50 ([2]; Mus musculus, 1 h)	SMILES	Potentiation Index (at 5 μM) [1]	IC50 [3, 6]	IC50 [3, 7]	other results
3 µM	Cn1c(=O)/c(=C/c2cn(CN3C(=O)c4ccccc4C3=O)c3ccccc23)n(C)c(=O)/c1=C/c1ccccc1 [Compound 1897]	75	50 µM	1.5 µM	–
12 µM	Cn1c(=O)/c(=C/c2c[nH]c3ccccc23)n(C)c(=O)/c1=C/c1ccccc1 [Compound 1896, (3Z,6Z)-3-Benzylidene-6-(3-indoly)methylene-1,4-dimethyl-2,5-piperazinedione]	–	30 µM	4 µM	–
10 µM	Cn1c(=O)/c(=C/c2cn(CCCN3C(=O)c4ccccc4C3=O)c3ccccc23)n(C)c(=O)/c1=C/c1ccccc1 [Compound 1943, (3Z,6Z)-3-Benzylidene-1,4-dimethyl-6-(3-(1-(3-phthalimido)propyl)indolyl)methylene-2,5-piperazinedione]	20	60 µM	0.2 µM	–
6 µM	Cn1c(=O)/c(=C/C2CCCCC2)n(C)c(=O)/c1=C/c1ccccc1 [Compound 1871, (3Z,6Z)-3-Benzylidene-6-cyclohexylmethylene-1,4-dimethyl-2,5-piperazinedione]	20	40 µM	1 µM	–
20 µM	O=c1[nH]/c(=C\c2ccncc2)c(=O)n(Cc2ccccc2)/c1=C\c1ccccc1 [Compound 1839, (3Z,6Z)-1-Benzyl-6-benzylidene-3-(4-pyridyl)methylene-2,5-piperazinedione]	–	–	1.5 µM	Potentiation Index [1]: 15; IC50 [3, 8]: 30 µM
7 µM	COc1ccc(/C=c2/c(=O)n(Cc3ccccc3)/c(=C\c3ccoc3)c(=O)n2C)cc1 [Compound 1880, (3Z,6Z)-4-Benzyl-3-(3-furylmethylene)-6-(4-methoxybenzylidene)-1-methyl-2,5-piperazinedione]	–	10 µM	–	–
50 µM	COc1ccc(/C=c2\[nH]c(=O)/c(=C/c3cccs3)n(C)c2=O)cc1 [Compound 1597, (3Z,6Z)-3-(4-Methoxybenzylidene)-1-methyl-6-(2-thienylmethylene)-2,5-piperazinedione]	–	25 µM	–	Emax ([2]; Mus musculus, 1 hr): 59.1%; IC50 [3, 9]: 6 µM
10 µM	Cn1c(=O)/c(=C/c2cn(C(=O)OCc3ccccc3)c3ccccc23)n(C)c(=O)/c1=C/c1ccccc1 [Compound 1940, (3Z,6Z)-3-Benzylidene-6-(1-benzyloxycarbonyl-3-indolyl)methylene-1,4-dimethyl-2,5-piperazinedione]	14	7 µM	–	–
